Reference: patent US10334851B2, “Herbicidal isoxazolo[5,4-B]pyridines” (BASF SE, priority 2010, dated 2019)

Columns and labels:
Type in all cases: in vivo
Abutilon theophrasti = assay: Greenhouse post-emergence treatment of Abutilon theophrasti (velvetleaf); settings: scale 0 (no damage) to 100 (complete destruction); for pest or weed control at 3000 g/ha: Abutilon theophrasti
Source text: (§1) The seeds of the test plants were sown separately for each species. For the post-emergence treatment, the test plants were first grown to a height of 3 to 15 cm, depending on the plant habit, and only then treated with the active ingredients which had been suspended or emulsified in water. For this purpose, the test plants were either sown directly and grown in the same containers, or they were first grown separately as seedlings and transplanted into the test containers a few days prior to treatment. Depending on the species, the plants were kept at 10-25° C. or 20-35° C. The test period extended over 2 to 4 weeks. During this time, the plants were tended, and their response to the individual treatments was evaluated. Evaluation was carried out using a scale from 0 to 100. 100 means no emergence of the plants, or complete destruction of at least the aerial moieties, and 0 means no damage, or normal course of growth. A good herbicidal activity is given at values of at least 80 and a very good herbicidal activity is given at values of at least 90. The plants used in the greenhouse experiments belonged to the following species: [table]

Chenopodium album = assay: Greenhouse post-emergence treatment of Chenopodium album (fat-hen); settings: for damage / pest or weed control at 1000 g/ha: application rate 1.0 kg/ha; for damage: scale 0 to 100
Source text: as §1

[1] = system: Amaranthus retroflexus L.; assay: Greenhouse post-emergence treatment of Amaranthus retroflexus L. (pigweed); settings: for damage / pest or weed control at 1000 g/ha: application rate 1.0 kg/ha; for damage: scale 0 to 100
Source text: as §1

[2] = scale 0 to 100, read-out: damage
[3] = application rate 0.927 kg/ha, scale 0 to 100, read-out: damage

| SMILES | damage (Chenopodium album) [%] | damage [1] [%] | damage (Abutilon theophrasti; application rate 3.0 kg/ha) [%] | other results |
| --- | --- | --- | --- | --- |
| C=CCOC(=O)c1cc(C2CC2)nc2onc(C)c12 [I.1.62] |  |  |  | damage (Abutilon theophrasti; application rate 2.0 kg/ha): 100% |
| Cc1noc2nc(C3CC3)cc(C(=O)OCC(F)F)c12 [I.1.65] | 100 | 100 |  |  |
| CC#CCOC(=O)c1cc(C2CC2)nc2onc(C)c12 [I.1.68] |  |  | 100 |  |
| CCOCCOC(=O)c1cc(C2CC2)nc2onc(C)c12 [I.1.69] |  |  | 100 |  |
| CCCCOCCOCCOC(=O)c1cc(C2CC2)nc2onc(C)c12 [I.1.70] |  |  | 100 |  |
| C=COCCOC(=O)c1cc(C2CC2)nc2onc(C)c12 [I.1.75] |  |  | 100 |  |
| Cc1noc2nc(C3CC3)cc(C(=O)SCc3ccccc3)c12 [I.1.79] | 85 | 98 |  |  |
| C=CCSC(=O)c1cc(C2CC2)nc2onc(C)c12 [I.1.80] | 98 | 98 |  |  |
| CCCCSC(=O)c1cc(C2CC2)nc2onc(C)c12 [I.1.81] | 98 | 98 |  |  |
| CSC(=O)c1cc(C2CC2)nc2onc(C)c12 [I.1.82] | 98 | 98 |  |  |
| CON(C)C(=O)c1cc(C2CC2)nc2onc(C)c12 [I.1.83] | 100 | 100 |  |  |
| O=C(O)c1cc(C2CC2)nc2onc(-c3ccc(Cl)cc3)c12 [I.2.17] |  |  | 100 |  |
| O=C(O)c1cc(C2CC2)nc2onc(-c3ccc(C(F)(F)F)cc3)c12 [I.2.18] |  |  | 100 |  |
| O=C(O)c1cc(C2CC2)nc2onc(-c3cccc(C(F)(F)F)c3)c12 [I.2.21] |  |  | 100 |  |
| COc1cccc(-c2noc3nc(C4CC4)cc(C(=O)O)c23)c1 [I.2.22] |  |  | 100 |  |
| O=C(O)c1cc(C2CC2)nc2onc(-c3cccc(Cl)c3)c12 [I.2.24] |  |  | 100 |  |
| O=C(O)c1cc(C2CC2)nc2onc(C3CCCCC3)c12 [I.2.26] |  |  |  | pest or weed control at 3000 g/ha (Abutilon theophrasti; application rate 3.0 kg/ha): 100% |
| O=C(O)c1cc(C2CC2)nc2onc(CC3CCCC3)c12 [I.2.27] |  |  |  | pest or weed control at 3000 g/ha (Abutilon theophrasti; application rate 3.0 kg/ha): 100% |
| O=C(O)c1cc(C2CC2)nc2onc(CCC3CCCCC3)c12 [I.2.30] |  |  |  | pest or weed control at 3000 g/ha (Abutilon theophrasti; application rate 3.0 kg/ha): 100% |
| O=C(O)c1cc(C2CC2)nc2onc(-c3cccc(F)c3)c12 [I.2.31] |  |  | 100 |  |
| O=C(O)c1cc(C2CC2)nc2onc(CCCc3ccccc3)c12 [I.2.37] |  |  | 90 |  |
| COCc1noc2nc(C3CC3)cc(C(=O)O)c12 [I.2.38] |  |  | 100 |  |
| CC(C)CCc1noc2nc(C3CC3)cc(C(=O)O)c12 [I.2.39] |  |  | 100 |  |

| SMILES | damage (Chenopodium album) [%] | damage [1] [%] | damage (Abutilon theophrasti; application rate 3.0 kg/ha) [%] | other results |
| --- | --- | --- | --- | --- |
| O=C(O)c1cc(C2CC2)nc2onc(CCCc3cccs3)c12 [I.2.40] |  |  |  | pest or weed control at 3000 g/ha (Abutilon theophrasti; application rate 3.0 kg/ha): 100% |
| COc1ccc(CCc2noc3nc(C4CC4)cc(C(=O)O)c23)cc1 [I.2.42] |  |  | 100 |  |
| O=C(O)c1cc(C2CC2)nc2onc(-c3ccc(I)cc3)c12 [I.2.43] |  |  | 100 |  |
| O=C(O)c1cc(C2CC2)nc2onc(-c3cc(F)cc(F)c3)c12 [I.2.44] |  |  | 100 |  |
| O=C(O)c1cc(C2CC2)nc2onc(-c3ccc(OC(F)F)cc3)c12 [I.2.45] | 98 | 98 |  |  |
| O=C(O)c1cc(C2CC2)nc2onc(C3(F)CC3)c12 [I.2.46] |  |  |  | pest or weed control at 1000 g/ha (Chenopodium album; [2]): 98%; pest or weed control at 1000 g/ha [1, 2]: 98% |
| O=C(O)c1cc(C2CC2)nc2onc(-c3ccccc3F)c12 [I.2.50] | 100 | 100 |  |  |
| O=C(O)c1cc(C2CC2)nc2onc(-c3ccc(F)cc3)c12 [I.2.51] | 100 | 100 |  |  |
| Cc1ccccc1-c1noc2nc(C3CC3)cc(C(=O)O)c12 [I.2.52] | 98 | 100 |  |  |
| COc1noc2nc(C3CC3)cc(C(=O)O)c12 [I.2.53] |  |  |  | pest or weed control at 1000 g/ha (Chenopodium album; [2]): 100%; pest or weed control at 1000 g/ha [1, 2]: 100% |
| CCOc1noc2nc(C3CC3)cc(C(=O)O)c12 [I.2.54] |  |  |  | pest or weed control at 1000 g/ha (Chenopodium album; [2]): 100%; pest or weed control at 1000 g/ha [1, 2]: 100% |
| CCCOc1noc2nc(C3CC3)cc(C(=O)O)c12 [I.2.55] | 100 | 100 |  |  |
| CCCCOc1noc2nc(C3CC3)cc(C(=O)O)c12 [I.2.56] | 100 | 100 |  |  |
| CC(C)Oc1noc2nc(C3CC3)cc(C(=O)O)c12 [I.2.57] |  |  |  | pest or weed control at 1000 g/ha (Chenopodium album; [2]): 100%; pest or weed control at 1000 g/ha [1, 2]: 100% |
| CC(C)(C)Oc1noc2nc(C3CC3)cc(C(=O)O)c12 [I.2.58] |  |  |  | pest or weed control at 1000 g/ha (Chenopodium album; [2]): 100%; pest or weed control at 1000 g/ha [1, 2]: 100% |
| CCc1ccc(-c2noc3nc(C4CC4)cc(C(=O)O)c23)cc1 [I.2.61] | 100 | 100 |  |  |
| CCOc1ccc(-c2noc3nc(C4CC4)cc(C(=O)O)c23)cc1 [I.2.62] | 100 | 100 |  |  |
| CCCCOc1ccc(-c2noc3nc(C4CC4)cc(C(=O)O)c23)cc1 [I.2.63] | 100 | 100 |  |  |
| CC(C)c1ccc(-c2noc3nc(C4CC4)cc(C(=O)O)c23)cc1 [I.2.66] | 100 | 100 |  |  |
| CC(C)(C)c1ccc(-c2noc3nc(C4CC4)cc(C(=O)O)c23)cc1 [I.2.71] | 100 | 100 |  |  |
| COC(=O)c1cc(C2CC2)nc2onc(C3CCC3)c12 [I.4.4] |  |  |  | pest or weed control at 3000 g/ha (Abutilon theophrasti; application rate 3.0 kg/ha): 100% |
| COC(=O)c1cc(C2CC2)nc2onc(CCc3ccccc3)c12 [I.4.5] |  |  | 85 |  |
| CCCCCc1noc2nc(C3CC3)cc(C(=O)OC)c12 [I.4.25] |  |  | 100 |  |

| SMILES | damage (Chenopodium album) [%] | damage [1] [%] | damage (Abutilon theophrasti; application rate 3.0 kg/ha) [%] | other results |
| --- | --- | --- | --- | --- |
| COC(=O)c1cc(C2CC2)nc2onc(CCC3CCCCC3)c12 [I.4.27] |  |  |  | pest or weed control at 3000 g/ha (Abutilon theophrasti; application rate 3.0 kg/ha): 100% |
| CSC(=O)c1cc(C2CC2)nc2onc(CC(C)(C)C)c12 [I.4.45] |  | 100 |  |  |
| CSC(=O)c1cc(C2CC2)nc2onc(-c3ccc(F)cc3)c12 [I.4.47] |  | 95 |  |  |
| CCCc1noc2nc(C3CC3)cc(C(=O)SC)c12 [I.4.59] | 100 | 95 |  |  |
| CSC(=O)c1cc(C2CC2)nc2onc(C3CC3)c12 [I.4.60] |  |  |  | pest or weed control at 927 g/ha (Chenopodium album; [3]): 100%; pest or weed control at 927 g/ha [1, 3]: 100% |
| NC(=O)c1cc(C2CC2)nc2onc(C3CC3)c12 [I.4.63] |  |  |  | pest or weed control at 1000 g/ha (Chenopodium album; [2]): 100%; pest or weed control at 1000 g/ha [1, 2]: 100% |
| CCc1cc(C(=O)O)c2c(C)noc2n1 [I.5.4] |  |  |  | pest or weed control at 3000 g/ha (Abutilon theophrasti; application rate 3.0 kg/ha): 85% |
| Cc1cc(C(=O)O)c2c(C(C)C)noc2n1 [I.7.10] |  |  |  | pest or weed control at 3000 g/ha (Abutilon theophrasti; application rate 3.0 kg/ha): 100% |
| Cc1cc(C(=O)O)c2c(C3CC3)noc2n1 [I.7.13] |  |  |  | pest or weed control at 3000 g/ha (Abutilon theophrasti; application rate 3.0 kg/ha): 100% |
| Cc1cc(C(=O)O)c2c(-c3ccccc3)noc2n1 [I.7.31] |  |  | 98 |  |
| Cc1cc(C(=O)O)c2c(-c3ccco3)noc2n1 [I.7.38] |  |  |  | pest or weed control at 3000 g/ha (Abutilon theophrasti; application rate 3.0 kg/ha): 100% |
| CCCc1noc2nc(C)cc(C(=O)O)c12 [I.7.39] |  |  | 100 |  |
| Cc1cc(C(=O)O)c2c(CC(C)(C)C)noc2n1 [I.7.41] |  |  | 100 |  |
| COC(=O)c1cc(C2(F)CC2)nc2onc(C3CC3)c12 [I.7.53] |  |  |  | pest or weed control at 1000 g/ha (Chenopodium album; [2]): 90%; pest or weed control at 1000 g/ha [1, 2]: 100% |
| O=C(O)c1cc(C2CC2(F)F)nc2onc(C3CC3)c12 (centres unmarked) [I.7.55] |  |  |  | pest or weed control at 1000 g/ha (Chenopodium album; [2]): 100%; pest or weed control at 1000 g/ha [1, 2]: 100% |
| O=C(O)c1cc(C2CC2(F)F)nc2onc(-c3ccccc3)c12 (centres unmarked) [I.7.56] | 90 | 80 |  |  |
| COc1ccc(-c2noc3nc(C4CC4(F)F)cc(C(=O)O)c23)cc1 (centres unmarked) [I.7.57] | 98 | 80 |  |  |
| COc1ccc(-c2noc3nc(C4(F)CC4)cc(C(=O)O)c23)cc1 [I.7.61] | 100 | 100 |  |  |
| O=C(O)c1cc(C2(F)CC2)nc2onc(-c3ccccc3)c12 [I.7.62] | 100 | 100 |  |  |
| CCCc1noc2nc(C3(F)CC3)cc(C(=O)O)c12 [I.7.63] | 100 | 100 |  |  |
| CC(C)(C)c1noc2nc(C3(F)CC3)cc(C(=O)O)c12 [I.7.64] |  |  |  | pest or weed control at 1000 g/ha (Chenopodium album; [2]): 100%; pest or weed control at 1000 g/ha [1, 2]: 100% |
| Cc1noc2nc3c(c(C(=O)O)c12)CCC3 [I.8.1] |  |  |  | pest or weed control at 3000 g/ha (Abutilon theophrasti; application rate 3.0 kg/ha): 100% |
